# Tested on: Alternaria solani
# Test: Microtest: activity against early blight caused by Alternaria solani (micro titer plate, absorption at 405 nm)
# Assay type: cell-based
# Conditions: single compound, 7 days after inoculation, 0 = growth as untreated control, 100 = no growth
# Procedure: The stock solutions were mixed according to the ratio, pipetted onto a micro titer plate (MTP) and diluted with water to the stated concentrations. A spore suspension of Alternaria solani in an aqueous biomalt or yeast-bactopeptone-glycerine or DOB solution was then added. The plates were placed in a water vapor-saturated chamber at a temperature of 18° C. Using an ab-sorption photometer, the MTPs were measured at 405 nm 7 days after the inoculation. The measured parameters were compared to the growth of the active compound-free control variant (100%) and the fungus-free and active compound-free blank value to determine the relative growth in % of the pathogens in the respective active compounds. These percentages were converted into efficacies. […] The expected efficacies of active compound mixtures were determined using Colby's formula [R. S. Colby, “Calculating synergistic and antagonistic responses of herbicide combinations”, Weeds 15, 20-22 (1967)] and compared with the observed efficacies.
structure (smiles),measurement,setting,value
"N#Cc1ccc(Oc2ccc(C(F)(F)C(O)(Cn3ncnc3S)c3ccc(F)cc3F)nc2)cc1 (stereo not shown) [Compound I, 4-[[6-[2-(2,4-difluorophenyl)-1,1-difluoro-2-hydroxy-3-(5-sulfanyl-1,2,4-triazol-1-yl)propyl]-3-pyridyl]oxy]benzonitrile]",Observed efficacy,0.25 ppm,7
same,Observed efficacy,1 ppm,8
same,Observed efficacy,4 ppm,30
"Cc1cccc(-n2nnn(C)c2=O)c1COc1ccn(-c2ccc(Cl)cc2)n1 [Compound II, 1-[2-[[1-(4-chlorophenyl)pyrazol-3-yl]oxymethyl]-3-methyl-phenyl]-4-methyl-tetrazol-5-one, reference compound]",Observed efficacy,0.016 ppm,11

# — patent US11998010B2, “Pesticidal mixtures” (BASF SE, priority 2018, dated 2024)
